{"source": "patent US9642859B2", "about": "“Use of capsazepine and analogs thereof to treat cancer” (THE BOARD OF REGENTS OF THE UNIVERSITY OF TEXAS SYSTEM, priority 2012, dated 2017)", "key": {"HSC3 [1]": {"test_system": "HSC3", "experiment": "Cell cycle analysis by DNA profile FACS, HSC3", "assay_type": "cell-based, human", "conditions": "24 hours", "description": "(§1) In particular, Table 1 provides additional cell cycle distribution data of OSCC cells (%) treated with 0 μM, 30 μM, 60 μM, or 90 μM CPZ for 24 hours. Data for OSCC cell lines HSC3, SCC4, and SCC25 are also provided in diagrams of FIGS. 1G-1, 1G-2, and 1G-3, respectively."}, "OSCC xenografts": {"test_system": "OSCC xenografts", "experiment": "TUNEL staining of OSCC xenografts", "assay_type": "in vivo, mice", "conditions": "CPZ treated xenografts, p<0.001", "description": "FIG. 15A-15C. TUNEL staining of OSCC xenografts. FIG. 15A: Representative photomicrograph of TUNEL stain of HSC3 xenograft (10×) treated with vehicle control. […] FIG. 15B: Number of apoptotic figures per field in vehicle and 40 μg capsazepine (CPZ) treated SCC4 xenografts. FIG. 15C: Number of apoptotic figures per field in vehicle and CPZ (20 m) treated SCC25 xenografts. Student's T-Test of the average of six fields with n=3; ***p<0.001.\nAt the conclusion of the experiment, serum was collected for liver and kidney function analysis. […] Tumors were analyzed histologically using H&E (hematoxylin and eosin) and TUNEL (terminal deoxyribonucleotidyl transferase-mediated dUTP nick end labeling) staining for detection of DNA fragmentation associated with apoptosis, and apoptotic figures were quantified. [FIGS. 15-1 to 15-3] […] Therefore, CPZ empirically has shown promise for being a well-tolerated treatment for OSCC."}, "[2]": {"test_system": "breast cancer cell line MDA231", "experiment": "Additional cell proliferation assay, MDA231", "assay_type": "cell-based, human", "conditions": "MDA231, 24 hour treatment", "from_the_text": "(§2) Observed reductions in cell proliferation in these additional in vitro studies are as follows: SCC4, 40%; HSC3, 50%; SCC25, 80%; Cal27, 15%; MDA231, 56%; and LnCap, 37%."}, "HSC3 [3]": {"test_system": "HSC3", "experiment": "Additional cell proliferation assay, HSC3", "assay_type": "cell-based, human", "conditions": "HSC3, 24 hour treatment", "from_the_text": "as §2"}, "[4]": {"experiment": "Tolerability observations in tumor bearing mice treated intratumorally", "assay_type": "in vivo", "description": "Treatments. CPZ (5 mg) was diluted in 250 μl of 100% DMSO to yield a final concentration of 20 μg/μl of stock solution. Stock solution (100 m) was subsequently diluted in 7% DMSO in sterile saline generating a final concentration of 1 μg/μl. A total of 40 μg in 40 μl was injected intra-tumorally. Control xenografts were injected intra-tumorally with 40 μl of vehicle control (7% DMSO). Mice were monitored daily for tumor growth, cachexia, and weight loss. Tumor volumes and body weight were recorded every other day. Tumor volumes were calculated by the formula: (4π/3)×(w/2)2×(l/2), where w=width and l=length. Measurements were made using a digital caliper. At the conclusion of the experiments, mice were anaesthetized with isoflurane and cervical dislocation, blood was collected, and the serum was separated and stored at −80° C. until assayed. Biochemical analysis of serum was performed by the Mouse Metabolic Phenotyping Center (Yale School of Medicine, New Haven, Conn.). Tumors were dissected and placed in 10% neutral buffered formalin (SIGMA, St. Louis, Mo.) and processed for histological analysis."}, "[5]": {"test_system": "OSCC cell lines (HSC3, SCC4, and SCC25)", "experiment": "Western blot analysis of cleaved PARP", "assay_type": "cell-based, human", "conditions": "increasing doses of CPZ, 24 h", "description": "FIG. 1F. […] The Control (Ctrl) is […].\nas §1"}, "[6]": {"experiment": "Liver and kidney function tests of tumor bearing mice", "assay_type": "in vivo", "conditions": "40 μg CPZ intra-tumoral every other day over 14 days", "description": "FIG. 14. Liver and kidney function tests of tumor bearing mice following two week treatment with either vehicle control (Control) or 40 μg CPZ in 40 μl Veh medium (1 μg/μl) injected directly into tumor every other day over 14 days (CPZ).\nTreatments. CPZ (5 mg) was diluted in 250 μl of 100% DMSO to yield a final concentration of 20 μg/μl of stock solution. Stock solution (100 m) was subsequently diluted in 7% DMSO in sterile saline generating a final concentration of 1 μg/μl. A total of 40 μg in 40 μl was injected intra-tumorally. Control xenografts were injected intra-tumorally with 40 μl of vehicle control (7% DMSO). Mice were monitored daily for tumor growth, cachexia, and weight loss. Tumor volumes and body weight were recorded every other day. Tumor volumes were calculated by the formula: (4π/3)×(w/2)2×(l/2), where w=width and l=length. Measurements were made using a digital caliper. […]\nAt the conclusion of the experiment, serum was collected for liver and kidney function analysis. […] Tumors were analyzed histologically using H&E (hematoxylin and eosin) and TUNEL (terminal deoxyribonucleotidyl transferase-mediated dUTP nick end labeling) staining for detection of DNA fragmentation associated with apoptosis, and apoptotic figures were quantified. […]"}, "SCC25": {"test_system": "SCC25", "experiment": "Cell cycle analysis by DNA profile FACS, SCC25", "assay_type": "cell-based, human", "conditions": "24 hours", "description": "as §1"}, "OSCC cell lines": {"test_system": "OSCC cell lines", "experiment": "ROS assays by flow cytometry (DCF-DA)", "assay_type": "cell-based, human", "conditions": "30 μM capsazepine, 1 h", "description": "FIGS. 1I-1 to 1I-3. Reactive oxygen species (ROS) assays. The level of ROS in OSCC cell lines was examined by flow cytometry using 2,7-dichlorodihydrofluorescein diacetate (DCFH-DA; Sigma). Approximately 3×10^5 cells were plated in 12-well plates. To detect ROS, cells were incubated for 30 min at 37° C. with DCF-DA, washed and then treated for 1 h with 30 μM capsazepine (grey, thick line), 150 μM capsaicin (grey, thin line), 30 μM capsazepine+150 μM capsaicin (black line), or vehicle control (dotted line). The cells were harvested, washed twice, and analyzed by flow cytometry.\nFIGS. 1I-4(a)-(b) to 1I-6(a)-(b). Induction of ROS in OSCC cell lines. (a). ROS induction in OSCC cell lines following 1 h treatment with 30 μM CPZ (black line) compared to vehicle control. (b). ROS induction in OSCC cell lines following 1 h treatment with 30 μM CPZ is reversed by NAC co-treatment (black line) as indicated in the shift in their peaks to the left.\nROS levels in OSCC cell lines were examined by flow cytometry using 2,7-dichlorodihydrofluorescein diacetate (DCF-DA; Sigma-Aldrich, St. Louis, Mo.). Cells (3×10^5) were plated in 12-well plates and incubated for 30 min with DCF-DA at 37° C. then treated with 30 μM capsazepine using phenol free media with and without 10 mM NAC. Treated cells were incubated for 1 h at 37° C., harvested, washed twice, and analyzed by FACS."}, "[7]": {"test_system": "voltage-activated calcium channels", "conditions": "cited from earlier work"}}, "data": [{"smiles": "Oc1cc2c(cc1O)CN(C(=S)NCCc1ccc(Cl)cc1)CCC2", "note": "[CPZ, 2-[2-(4-chlorphenyl)ethylamino-thiocarbonyl]-7,8-dihydroxy-2,3,4,5-tetrahydro-1H-2-benzazepine]", "values": [{"measurement": "G0/G1", "setting": "HSC3 [1]; HSC3, CPZ 30 μM", "value": 47.76, "unit": "%"}, {"measurement": "G2/M", "setting": "HSC3 [1]; HSC3, CPZ 30 μM", "value": 20.3, "unit": "%"}, {"measurement": "S", "setting": "HSC3 [1]; HSC3, CPZ 30 μM", "value": 13.47, "unit": "%"}, {"measurement": "SubG1", "setting": "HSC3 [1]; HSC3, CPZ 30 μM", "value": 18.47, "unit": "%"}, {"measurement": "G0/G1", "setting": "HSC3 [1]; HSC3, CPZ 60 μM", "value": 24.09, "unit": "%"}, {"measurement": "G2/M", "setting": "HSC3 [1]; HSC3, CPZ 60 μM", "value": 7.37, "unit": "%"}, {"measurement": "S", "setting": "HSC3 [1]; HSC3, CPZ 60 μM", "value": 11.23, "unit": "%"}, {"measurement": "SubG1", "setting": "HSC3 [1]; HSC3, CPZ 60 μM", "value": 57.31, "unit": "%"}, {"measurement": "G0/G1", "setting": "HSC3 [1]; HSC3, CPZ 90 μM", "value": 23.53, "unit": "%"}, {"measurement": "G2/M", "setting": "HSC3 [1]; HSC3, CPZ 90 μM", "value": 5.08, "unit": "%"}, {"measurement": "S", "setting": "HSC3 [1]; HSC3, CPZ 90 μM", "value": 10.27, "unit": "%"}, {"measurement": "SubG1", "setting": "HSC3 [1]; HSC3, CPZ 90 μM", "value": 61.12, "unit": "%"}, {"measurement": "apoptotic figures in treated tumors (TUNEL)", "setting": "OSCC xenografts", "value": "significant increase in apoptotic figures"}, {"measurement": "reduction in cell proliferation", "setting": "[2]", "value": 56, "unit": "%"}, {"measurement": "reduction in cell proliferation", "setting": "HSC3 [3]", "value": 50, "unit": "%"}, {"measurement": "body weight", "setting": "[4]; approximately two-week intra-tumoral CPZ treatment", "value": "did not lose weight"}, {"measurement": "adjacent healthy tissues", "setting": "[4]; intratumoral injection with CPZ", "value": "No inflammation, ulceration, necrosis or pain were evident"}, {"measurement": "cleaved PARP (c-PARP, marker of apoptosis)", "setting": "[5]", "value": "induction of cleaved PARP"}, {"measurement": "liver and kidney function", "setting": "[6]", "value": "No negative effects on liver or kidney function were detected"}, {"measurement": "G0/G1", "setting": "SCC25; SCC25, CPZ 30 μM", "value": 42.92, "unit": "%"}, {"measurement": "G2/M", "setting": "SCC25; SCC25, CPZ 30 μM", "value": 3.3, "unit": "%"}, {"measurement": "S", "setting": "SCC25; SCC25, CPZ 30 μM", "value": 9.01, "unit": "%"}, {"measurement": "SubG1", "setting": "SCC25; SCC25, CPZ 30 μM", "value": 44.77, "unit": "%"}, {"measurement": "G0/G1", "setting": "SCC25; SCC25, CPZ 60 μM", "value": 28.63, "unit": "%"}, {"measurement": "G2/M", "setting": "SCC25; SCC25, CPZ 60 μM", "value": 6.11, "unit": "%"}, {"measurement": "S", "setting": "SCC25; SCC25, CPZ 60 μM", "value": 14.78, "unit": "%"}, {"measurement": "SubG1", "setting": "SCC25; SCC25, CPZ 60 μM", "value": 50.48, "unit": "%"}, {"measurement": "G0/G1", "setting": "SCC25; SCC25, CPZ 90 μM", "value": 17.23, "unit": "%"}, {"measurement": "G2/M", "setting": "SCC25; SCC25, CPZ 90 μM", "value": 2.5, "unit": "%"}, {"measurement": "S", "setting": "SCC25; SCC25, CPZ 90 μM", "value": 10.36, "unit": "%"}, {"measurement": "SubG1", "setting": "SCC25; SCC25, CPZ 90 μM", "value": 69.91, "unit": "%"}, {"measurement": "level of ROS", "setting": "OSCC cell lines", "value": "increase in ROS"}, {"measurement": "effect on voltage-activated calcium channels", "setting": "[7]", "value": "Inhibitis"}]}]}
